{"source": "patent US7875625B2", "about": "“Cyclohepta[b]pyridine-3-carbonylguanidine derivative and pharmaceutical product containing same” (Toa Eiyo Ltd., priority 2005, dated 2011)", "key": {"Na^+/H^+ exchanger (NHE)": {"molecular_target": "T1, Na^+/H^+ exchanger (NHE) (Rattus norvegicus, UniProt P26431)", "T1 construct": "from tissue; host or cells: platelet-rich plasma from Wistar rat blood", "T1 sequence (P26431 whole entry)": "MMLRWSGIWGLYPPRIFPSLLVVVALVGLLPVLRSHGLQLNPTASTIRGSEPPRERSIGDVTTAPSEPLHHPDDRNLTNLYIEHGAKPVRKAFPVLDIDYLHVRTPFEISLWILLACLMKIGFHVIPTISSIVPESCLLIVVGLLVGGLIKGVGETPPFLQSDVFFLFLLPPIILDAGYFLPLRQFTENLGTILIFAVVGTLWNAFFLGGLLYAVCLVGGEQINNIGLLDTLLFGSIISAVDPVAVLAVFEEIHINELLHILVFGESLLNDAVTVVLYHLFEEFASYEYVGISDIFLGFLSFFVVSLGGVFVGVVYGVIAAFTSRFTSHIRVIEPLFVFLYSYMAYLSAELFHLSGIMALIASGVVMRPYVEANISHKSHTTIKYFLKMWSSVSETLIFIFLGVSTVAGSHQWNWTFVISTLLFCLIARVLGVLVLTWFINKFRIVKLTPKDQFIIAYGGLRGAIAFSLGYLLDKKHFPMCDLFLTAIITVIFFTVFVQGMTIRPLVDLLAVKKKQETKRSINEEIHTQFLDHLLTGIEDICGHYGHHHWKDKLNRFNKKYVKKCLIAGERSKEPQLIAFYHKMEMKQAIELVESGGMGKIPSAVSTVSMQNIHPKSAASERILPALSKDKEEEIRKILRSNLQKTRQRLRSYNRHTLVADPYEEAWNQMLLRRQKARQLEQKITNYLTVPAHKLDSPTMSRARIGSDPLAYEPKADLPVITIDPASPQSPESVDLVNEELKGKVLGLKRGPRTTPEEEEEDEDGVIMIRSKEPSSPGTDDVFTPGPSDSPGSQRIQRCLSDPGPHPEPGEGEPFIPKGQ", "experiment": "NHE inhibitory effect test (swelling of rat platelets induced by sodium propionate)", "type": "cell-based", "details": "rat platelet-rich plasma, sodium propionate buffer pH 6.7; 300 μM Amiloride taken as 100% inhibition; Probit method", "method": "The NHE inhibitory activity was measured according to the method by Scholz et al. [British Journal of Pharmacology, Vol. 109, p. 562-568 (1993)], taking the swelling of rat platelets induced by sodium propionate as an index.\nUnder etherization, blood was collected (8 mL) from the abdominal aorta of a Wistar rat, and 1 mL of a citrate dextrose solution as an anticoagulant was added. The blood sample was immediately centrifuged at 90×g for 10 minutes, and then the collected supernatant was taken as platelet-rich plasma. Subsequently, to 250 μL of a 140 mM sodium propionate buffer solution containing the test compound dissolved in dimethylsulfoxide (pH 6.7, final dimethylsulfoxide concentration 1%), the platelet-rich plasma prepared in the above (number of platelet; 10×10^6/50 μL) was added, and the decrease in the absorbance associated with the swelling of platelets was measured over time with a Hematracer (NKK Corp.).\nThe rate of decrease in the absorbance at 20 seconds after the addition of the platelet-rich plasma was taken as the NHE activity, and the inhibitory activity of the respective compounds was expressed as a relative activity, while the action obtained upon addition of 300 μM of Amiloride was taken as 100% inhibition.\nIn addition, the test results were obtained by calculating the concentration at which the inhibitory activity of the test compound becomes 50% (IC50 value), by a Probit method."}, "[1]": {"test_system": "reperfusion-induced arrhythmia upon myocardial ischemia", "experiment": "Reperfusion-induced arrhythmia inhibitory action test", "type": "in vivo, rat", "details": "male SD rats, 3.62 mmol/L, 1 mL/kg intravenous, within 10 minutes after reperfusion", "method": "Subsequently, in evaluation of the in vivo NHE inhibitory action, the effect of the test compound on reperfusion-induced arrhythmia upon myocardial ischemia was evaluated according to the method of Aihara et al. [European Journal of Pharmacology, Vol. 404, p. 221-229 (2000)]. Under anesthesia using pentobarbital sodium (60 mg/kg, intraperitoneal administration), cannulae were inserted into trachea, femoral vein and carotid artery of male SD rats ([…]) for artificial ventilation, drug administration and blood pressure measurement, respectively. The blood pressure was measured using a strain pressure amplifier via a pressure transducer, while the heart rate was measured from the blood pressure pulse wave using a cardiotachometer. Furthermore, an electrocardiogram (lead II) was measured from the electrodes attached to each four limbs. Next, under artificial ventilation, left thoracotomy was performed and a snare (5-0 nylon) was loosely placed around a blood vessel which was about 3 mm apart from the origin of the left coronary artery. Thereafter, it was confirmed that arrhythmia was not occurred for 10 minutes, and then the snare was fastened to induce local myocardial ischemia. Furthermore, after 4 minutes of myocardial ischemia, the compound was intravenously administered for 1 minute, and after 5 minutes of myocardial ischemia, the snare was loosened, then the arrhythmia occurred after reperfusion was recorded and analyzed with an arrhythmia analyzer (Softron Co., Ltd.), thereby the anti-arrhythmic action of the compound was evaluated. […] The control group was administered with physiological saline.\nWith regard to the ventricular fibrillation (Vf) which occurred within 10 minutes after reperfusion (in the cases of halfway death, up to the time point where cardiac arrest was confirmed), arrhythmia analysis was performed according to the Guidelines for Lambeth Convention [Cardiovascular research, Vol. 22, p. 447-455, 1988], and evaluation was made in terms of the frequency of Vf occurrence, cumulative duration time of Vf, and the mortality.\nThe frequency of Vf occurrence, cumulative duration of Vf, and the mortality for the respective test compounds are presented in Table 2."}, "[2]": {"experiment": "Metabolic stability test in rat (generation of control compound in plasma)", "type": "in vivo", "details": "male SD rats", "text": "The compound represented by Formula (1) of the present invention has a structure in which the hydroxyl group on the 9-position of a 9-hydroxymethyl-cyclohepta[b]pyridine-3-carbonylguanidine derivative is converted to a specific substituent. However, if the compound is metabolized in vivo to remove the specific substituent from the compound, there may be generated the original 9-hydroxymethyl-cyclohepta[b]pyridine-3-carbonylguanidine derivative, which has toxic effects on the central nervous system. Thus, the inventive compounds as synthesized in Examples were administered in vivo to study whether the control compound, which was the corresponding 9-hydroxymethyl product, was generated.\nMale SD rats (7 weeks old) were administered at 1 mg/kg (an amount calculated excluding salts) of the control compound, an equivalent amount of the Inventive Compound 2, 4, 6, 7 or 12, or Reference Compound 20, through the tail vein. After administration, about 0.2 mL of blood samples were collected after 5, 15, 30, 60 and 120 minutes, and the blood samples were centrifuged at 4° C. at a speed of rotation of 15000 for 15 minutes, thus to separate the supernatant plasma. The concentration of the control compound in the plasma was measured by LC/MS/MS. The measurement results were shown as +++ when the detected plasma concentration of the control compound is 200 ng/mL or greater; ++ for more than 100 ng/mL and less than 200 ng/mL; + for more than 20 ng/mL and less than 100 ng/mL; and − for less than 20 ng/mL or no detection."}, "male mice": {"test_system": "male mice", "experiment": "Toxicity test with 2-days repeated intraperitoneal administration in mouse", "type": "in vivo", "details": "equivalent of 300 mg/kg control compound intraperitoneally once a day for 2 days", "method": "For three male mice in each group, 300 mg/kg of the Control Compound (an amount calculated excluding salts), or an equivalent amount of the Inventive Compound 2, 4, 6, 7 or 12 were intraperitoneally administered once a day for 2 days, and a histopathological tests were performed. The Control Compound, and the Inventive Compounds 2, 4 and 6 were suspended in a 0.5% tragacanth gum solution, and the Inventive Compound 7 was suspended in a 10 DMSO-containing 0.5% tragacanth gum solution, while the Inventive Compound 12 was suspended in olive oil. For the histopathological test, in order to make a more thorough examination of central nervous toxicity, the brain was examined after whole body was subjected to perfusion fixation with a 4% formaldehyde in neutral phosphate buffer as a fixing solution using a liquid transporting pump under pentobarbital sodium anesthesia."}, "Beagle dogs": {"test_system": "Beagle dogs", "experiment": "Toxicity test after 4-days repeated intravenous administration in beagle dogs", "type": "in vivo, dog", "details": "equivalent of 30 mg/kg control compound intravenously once a day for 4 days", "method": "With one male and one female dogs in each group, 30 mg/kg of the Control Compound dissolved in physiological saline (an amount calculated excluding salts), or an equivalent amount of the Inventive Compound 2, 4, 6 or 8 was repeatedly administered intravenously once a day for 4 days, and general symptom observation and pharmacological histopathologic examination were performed."}, "[3]": {"experiment": "Comparative test for transferability to the brain in rat", "type": "in vivo", "details": "male SD rats, 50 mg/kg via tail vein", "method": "To male SD rats (6 weeks old), the Control Compound or the Inventive Compound 2 was administered through the tail vein in an amount of 50 mg/kg. After administration, whole blood samples were collected over time from the abdominal aorta under etherization, and the brain tissues were extracted immediately. The brain tissues were lightly washed off to remove the blood attached around with physiological saline, and subsequently the tissues were frozen in liquid nitrogen and preserved at −30° C. until analyzed. The blood was centrifuged at 4° C. at a rotation speed of 15000 for 15 minutes to separate the supernatant plasma, and was preserved at −30° C. until analyzed. The brain tissues were thawed by standing at ambient temperature, and then the wet weight was measured. Distilled water was added in an amount five times of the wet weight, and a suspension was prepared using a Polytron homogenizer. The measurement of the test compound concentration in the plasma and the brain tissues was performed by LC/MS/MS. The transferability of the drug to the brain was calculated by dividing the drug concentration in the brain tissues by the plasma concentration obtained at the same time."}}, "data": [{"compound": "Cc1nc2c(cc1C(=O)NC(=N)N)CCCCC2COS(=O)(=O)[O-].[Na+]", "note": "(stereo not drawn) [Inventive Compound 2, 3-Guanidinocarbonyl-2-methyl-6,7,8,9-tetrahydro-5H-cyclohepta[b]pyridin-9-ylmethyl sulfate sodium salt]", "values": [{"measurement": "IC50", "setting": "Na^+/H^+ exchanger (NHE)", "value": 143, "unit": "nM"}, {"measurement": "Cumulative duration of Vf", "setting": "[1]", "value": 13.7, "unit": "s"}, {"measurement": "Frequency of Vf occurrence", "setting": "[1]", "value": 40, "unit": "%"}, {"measurement": "Mortality", "setting": "[1]", "value": 20, "unit": "%"}, {"measurement": "Plasma concentration of the control compound, after 5 min", "setting": "[2]; equivalent of 1 mg/kg control compound via tail vein, LC/MS/MS, 5 min", "value": "− (− for less than 20 ng/mL or no detection)"}, {"measurement": "Plasma concentration of the control compound, after 15 min", "setting": "[2]; equivalent of 1 mg/kg control compound via tail vein, LC/MS/MS, 15 min", "value": "− (− for less than 20 ng/mL or no detection)"}, {"measurement": "Plasma concentration of the control compound, after 30 min", "setting": "[2]; equivalent of 1 mg/kg control compound via tail vein, LC/MS/MS, 30 min", "value": "− (− for less than 20 ng/mL or no detection)"}, {"measurement": "Plasma concentration of the control compound, after 60 min", "setting": "[2]; equivalent of 1 mg/kg control compound via tail vein, LC/MS/MS, 60 min", "value": "− (− for less than 20 ng/mL or no detection)"}, {"measurement": "Plasma concentration of the control compound, after 120 min", "setting": "[2]; equivalent of 1 mg/kg control compound via tail vein, LC/MS/MS, 120 min", "value": "− (− for less than 20 ng/mL or no detection)"}, {"measurement": "Decomposition into the Control Compound in vivo (in words)", "setting": "[2]; tail vein, plasma 5-120 min", "value": "not detected at any time point"}, {"measurement": "Histopathological finding in the brain", "setting": "male mice", "value": "any histologic finding which could be caused by drug administration was not recognized"}, {"measurement": "General condition (symptom observation)", "setting": "Beagle dogs", "value": "only vomiting was recognized"}, {"measurement": "Pathologic examination of the brain", "setting": "Beagle dogs", "value": "any histologic finding which could be caused by drug administration was not recognized"}, {"measurement": "Transferability to the brain tissues (in words)", "setting": "[3]; compared with the Control Compound", "value": "decreased transferability to the brain tissues"}, {"measurement": "Kp at 15 min", "setting": "[3]; rat, brain/plasma, intravenous, 15 min, read-out: Concentration Intracerebral/Plasma, after 15 min", "value": 0.29}]}]}
